Experimental data from US20030148963A1 (priority 2000, published 2003).
“And” between values parts separate entries of the source, which are not always exact repeats. Identical values can stand only once. Marks after values point to notes of the source that are not given here.

Tests used:
[1] = system: S. aureus-induced arthritis
Protocol: NMRI mice of both sexes, 6-8 weeks old, were obtained from B&K Universal AB (Stockholm, Sweden). They were housed in the animal facility of the Department of Rheumatology, University of Göteborg, under standard conditions of light and temperature and fed standard laboratory chow and water ad libitum.
S. aureus LS-1 strain was originally isolated from a swollen joint of a spontaneously arthritic NZB/W mouse. The bacteria were cultured for […] on blood agar plates, replated for another 24 h, washed and kept frozen at −20° C. in PBS containing 5% bovine serum albumin ([…]) and 10% dimethyl sulfoxide ([…]) until used. Before use, the bacterial solution was thawed and washed in PBS. Viable count was done to check the number of bacteria in each bacterial solution mice were given i.v. injections (in the tail vein) of 0.2 ml of bacterial solution
All the mice were monitored individually. Their limbs were inspected visually every day during the experiment. Arthritis was defined as visible joint erytbema and/or swelling of at least one joint. To evaluate the intensity of arthritis, a clinical scoring system of 0 to 3 points for each limb was used (1 point, mild swelling and/or erytema; 2 points, moderate swelling and erythema; 3 points, marked swelling and erytema). The arthritic index was constructed by adding the scores from all four limbs for each animal. Previous study has shown that there is a good correlation between the clinical and histopathological appearance of arthritis. The overall condition of each mouse was evaluated by assessing its weight, general appearance, alertness, and skin abnormalities.

[2] = system: collagen induced arthritis (CIA); experiment: Collagen induced arthritis, histopathological examination of joints; format: in vivo, B10.QxDBA/1 female mice
Protocol: Histopathological examination was performed after routine fixation, decalcification, paraffin embedding, and staining with hematoxylin and eosin. All the slides were coded and the joints were studied with regard to synovial hypertrophy (defined as a synovial membrane thickness of more than two cell layers), pannus formation (synovial tissue overlaying the joint cartilage), and cartilage and bone destruction (loss of tissue integrity with resulting ingrowth of fibrotic tissue) (11). The severity of synovial hypertrophy and cartilage/bone destruction was scored from 0 (intact synovial, cartilage/bone tissue) to 3 (intense synovitis with total destruction of cartilage and/or bone).

[3] = system: immunoglobulins; experiment: Serum total immunoglobulins (single radial immunodiffusion); format: in vivo, B10.QxDBA/1 female mice; details: serum at end of experiment, mean ± SEM
Protocol: Serum levels of immunoglobulins were measured by the single radial immunodiffusion technique (12). Antiserum was purchased from Dako (Dako A/S, Denmark) and mouse immunoglobulin standards were obtained from Sigma (Sigma Chemical Co., St. Louis, Mo.).

[4] = system: draining lymph node cells; experiment: Draining lymph node response after CII immunization; format: in vivo, mice
[5] = system: spleen mononuclear cells; format: cell-based; details: spleen cells of mice given 12.5 mg/kg 4 days a week for 4 weeks
[6] = system: TNF; experiment: TNF release by IC-21 macrophage cell line; format: cell-based, murine
Protocol: Levels of TNF, IL-1b, RANTES, and macrophage inflammatory protein (MIP)-1α were determined using sandwich ELISA from R&D Systems (Minneapolis, Minn.).
These cells display many typical features of the macrophage phenotype and are therefore a suitable model for studying cytoline and chemokine release during inflammation (16). The cells were maintained in continous culture using RPMI-1640 supplemented with 10% FCS, L-glutamine, and gentamycin. When the cells had grown to about 70% confluency, they were seeded into a 24-well-plate (Nunc) at a concentration of 1×10^5 per well and incubated at 37° C. in 5% CO2 for 24 h. […] After 24 h of incubation, the cells were washed once with PBS, and reincubated with medium containing different concentrations (1, 10, 100, 1000 ng/ml) of LPS (Difco) and IFN-γ (10, 50, 100 u/nml). The interferon-γ was purified from the supernatants from Chinese hanater ovary (CHO) cells transfected with the murine IFN-γ gene (hybridoma kindly provided by Dr. Morris, Department of Biological Sciences, University of Warwick, Coventry, UK). After 2 and 24 h of incubation the supernatants were collected and stored at −20° C. until analysis.

[7] = system: IL-1α; experiment: IL-1 release by IC-21 macrophage cell line; format: cell-based, murine
[8] = Etoposide pretreated, n 16, day 61
[9] = Etoposide treated (from day 40), n 17, day 61, mean ± SEM

SMILES: COc1cc([C@@H]2c3cc4c(cc3[C@@H](O[C@@H]3O[C@@H]5CO[C@@H](C)O[C@H]5[C@H](O)[C@H]3O)[C@H]3COC(=O)[C@H]23)OCO4)cc(OC)c1O [Etoposide]
- Mortality ([1]; 1-2×10^7 CFU S. aureus, starting four days after inoculation, FIG. 1B): higher mortality than the controls
- Weight loss ([1]; S. aureus infected mice vs controls, data not shown): more prominent
- Frequency of clinical signs of arthritis ([1]; six days after inoculation, 1-2×10^7 CFU S. aureus, controls 70%): 35%
- Mice died ([1]; suboptimal dose of bacteria 1×10^6 CFU, 8 days after inoculation, controls 1 out of 10): 6 out of 10
- Cartilage/bone destruction score [2, 8]: 0
- Synovial hypertrophy score [2, 8]: 0
- Cartilage/bone destruction score [2, 9]: 4.5 ± 2.4
- Synovial hypertrophy score [2, 9]: 2.4 ± 1.1
- Total immunoglobulin levels ([3]; Etoposide-pretreated): 9.2±0.5 mg/ml and 9.2 ± 0.5a mg/ml
- Total immunoglobulin levels ([3]; Etoposide-treated (from day 40)): 8.5±0.7 mg/ml and 8.5 ± 0.8^a mg/ml
- Numbers of B cells, T cells, macrophages and germinal centers in inguinal lymph nodes ([4]; 10 days after CII immunization, immunohistochemical stainings): no significant effects on numbers
- Antibodies to CII in lymph node cell cultures ([4]; lymph node cells challenged in vitro with CII, vs PBS controls): not produced at all
- T cell functions (proliferation, IFN-γ secretion) of lymph node cells ([4]; lymph node cells challenged in vitro with CII, data not shown): no difference in T cell functions
- Counts per minute (CPM), TSST-1 ([5]; first value of merged cell): 1117 ± 26 CPM
- Counts per minute (CPM), Con A ([5]; mean ± SEM, 4 mice): 2183 ± 214^a) CPM
- Counts per minute (CPM), 0 (unstimulated) ([5]; second value of merged cell): 156 ± 9 CPM
- Levels of TNF in supernatants ([6]; etoposide 0.01 μM 24 h, then IFN-γ 10 u/ml 24 h): 52 pg/mL
- Levels of TNF in supernatants ([6]; etoposide 0.01 μM 24 h, then IFN-γ 50 u/ml 24 h): 56 pg/mL
- Levels of TNF in supernatants ([6]; etoposide 0.01 μM 24 h, then IFN-γ 100 u/ml 24 h): 65 pg/mL
- Levels of TNF in supernatants ([6]; etoposide 0.01 μM 24 h, then LPS 0 ng/ml 24 h): 66 pg/mL
- Levels of TNF in supernatants ([6]; etoposide 0.01 μM 24 h, then LPS 1 ng/ml 24 h): 207 pg/mL
- Levels of TNF in supernatants ([6]; etoposide 0.01 μM 24 h, then LPS 10 ng/ml 24 h): 3050 pg/mL
- Levels of TNF in supernatants ([6]; etoposide 0.01 μM 24 h, then LPS 100 ng/ml 24 h): 11900 pg/mL
- Levels of TNF in supernatants ([6]; etoposide 0.01 μM 24 h, then LPS 1000 ng/ml 24 h): 12375 pg/mL
- Levels of TNF in supernatants ([6]; etoposide 0.1 μM 24 h, then IFN-γ 10 u/ml 24 h): 20 pg/mL
- Levels of TNF in supernatants ([6]; etoposide 0.1 μM 24 h, then IFN-γ 50 u/ml 24 h): 32 pg/mL
- Levels of TNF in supernatants ([6]; etoposide 0.1 μM 24 h, then IFN-γ 100 u/ml 24 h): 34 pg/mL
- Levels of TNF in supernatants ([6]; etoposide 0.1 μM 24 h, then LPS 0 ng/ml 24 h): 24 pg/mL
- Levels of TNF in supernatants ([6]; etoposide 0.1 μM 24 h, then LPS 1 ng/ml 24 h): 72 pg/mL
- Levels of TNF in supernatants ([6]; etoposide 0.1 μM 24 h, then LPS 10 ng/ml 24 h): 1125 pg/mL
- Levels of TNF in supernatants ([6]; etoposide 0.1 μM 24 h, then LPS 100 ng/ml 24 h): 2325 pg/mL
- Levels of TNF in supernatants ([6]; etoposide 0.1 μM 24 h, then LPS 1000 ng/ml 24 h): 3650 pg/mL
- Levels of IL-1α [7]: No major differences
